Data on two compounds can be found in patent publication US9688710B2, “Inhibitors of sodium glucose cotransporter 1” (LEXICON PHARMACEUTICALS, INC., priority 2012, dated 2017).

In test [1] the test system is KKay mice. The test can be described thus: Postprandial tGLP-1 in KKAy diabetic mice. Format: in vivo. The following applies: 4.5 mpk group, day 29, 60 minutes after glucose bolus 2 g/kg. The text has this:
(§1) Twelve week-old male KKay mice were purchased from The Jackson Laboratory (Bar Harbor, Me.). They were switched to 45% high fat diet (HFD; diet D12451i, Research Diets) and housed individually for one week before study. The mice were randomized into the following groups by their HbA1c levels and body weights:
(§2) Mice received either vehicle or Compound C once daily at […] for 36 days. Body weight and food consumption were monitored daily. On day 22, blood was collected before glucose challenge for baseline glucose. Mice were then given a bolus dose of glucose (2 g/kg, 10 mL/kg). Blood was collected at 30, 60 and 120 minutes after glucose challenge to estimate the glucose excursion. Blood glucose was analyzed by Cobas Integra 400 Autoanalyzer (Roche Diagnostics).
On day 29, the mice again received a glucose bolus (2 g/kg, 10 mL/kg). Blood was collected at 60 minutes after glucose challenge and analyzed for tGLP-1. Plasma was prepared by centrifuging blood samples at 1000 rpm for 10 minutes at 4° C. tGPL-1 was analyzed by ELISA (Glucagon-Like Peptide-1 Total ELISA Kit, catalog #EZGLP1T-36K, Millipore, St. Charles, Mo.) according to the protocol recommended by Millipore.

For test [2], the target named is Human sodium/glucose co-transporter type 1 (SGLT1) (Homo sapiens (Human), UniProt P13866). The test can be described thus: In vitro human SGLT1 inhibition assay (14C-AMG uptake). The conditions noted are these: HEK293 cells expressing human HA-SGLT1, 14C-AMG uptake. Format: cell-based. The gist of the method: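 HEK293 cells stably expressing human HA-tagged SGLT1 (30,000/well, overnight) were washed into Na+-containing uptake buffer (140 mM NaCl, HEPES/Tris, 1 mg/mL BSA, pH 7.3). Cells then received compound plus 100 nCi 14C-AMG for 1–2 h at 37 °C; after washing, AMG uptake was quantified by scintillation counting.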

Test [3] concerns the target Human sodium/glucose co-transporter type 2 (SGLT2) (Homo sapiens (Human), UniProt P31639). In words: In vitro human SGLT2 inhibition assay (14C-AMG uptake). In kind it is cell-based. The conditions noted are these: HEK293 cells expressing human HA-SGLT2, 14C-AMG uptake. The method in brief: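 HEK293 cells stably expressing HA-tagged human SGLT2, seeded overnight, washed into Na+-containing HEPES/Tris uptake buffer with 1 mg/mL BSA, pH 7.3. Compound added, then 14C-AMG (100 nCi); 1-2 h at 37 °C, 5% CO2. Washed cells counted by scintillation for 14C-AMG uptake.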

Test [4] relates to KKay mice. The test can be described thus: HbA1c in KKAy diabetic mice. Format: in vivo. The conditions noted are these: 1.5 and 4.5 mg/kg once daily, day 26.
Text: as §1, §2
On day 26 after dosing, blood was collected for HbA1c. HbA1c was measured using a meter manufactured by Bayer according to the protocol recommended by Bayer.

Test [5] relates to KKay mice. In words: Glucose challenge in KKAy diabetic mice (glucose excursion). Format: in vivo. The conditions noted are these: KKay mice on 45% high fat diet, 1.5 and 4.5 mg/kg once daily, day 22, glucose bolus 2 g/kg 15 hours after dosing.
Text: as §1, §2

Human sodium/glucose co-transporter type 1 (SGLT1), sequence (P13866 whole entry): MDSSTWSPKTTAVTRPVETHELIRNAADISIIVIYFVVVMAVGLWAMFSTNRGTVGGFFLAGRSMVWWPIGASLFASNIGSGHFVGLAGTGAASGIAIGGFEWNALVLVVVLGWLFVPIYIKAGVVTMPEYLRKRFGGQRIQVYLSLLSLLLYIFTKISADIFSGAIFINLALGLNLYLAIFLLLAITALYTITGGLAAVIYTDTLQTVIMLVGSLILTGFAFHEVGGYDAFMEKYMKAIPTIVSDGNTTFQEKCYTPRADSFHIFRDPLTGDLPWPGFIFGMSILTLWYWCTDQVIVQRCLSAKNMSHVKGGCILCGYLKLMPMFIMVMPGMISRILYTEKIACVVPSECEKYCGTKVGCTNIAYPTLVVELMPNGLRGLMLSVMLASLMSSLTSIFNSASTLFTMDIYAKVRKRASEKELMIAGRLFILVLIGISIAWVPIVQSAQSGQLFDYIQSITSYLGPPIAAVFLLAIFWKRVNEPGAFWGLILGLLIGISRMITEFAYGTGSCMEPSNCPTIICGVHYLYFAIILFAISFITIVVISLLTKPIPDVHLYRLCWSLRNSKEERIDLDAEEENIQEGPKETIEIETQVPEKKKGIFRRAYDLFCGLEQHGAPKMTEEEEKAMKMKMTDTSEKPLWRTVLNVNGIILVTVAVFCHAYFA
Human sodium/glucose co-transporter type 2 (SGLT2), sequence (P31639 whole entry): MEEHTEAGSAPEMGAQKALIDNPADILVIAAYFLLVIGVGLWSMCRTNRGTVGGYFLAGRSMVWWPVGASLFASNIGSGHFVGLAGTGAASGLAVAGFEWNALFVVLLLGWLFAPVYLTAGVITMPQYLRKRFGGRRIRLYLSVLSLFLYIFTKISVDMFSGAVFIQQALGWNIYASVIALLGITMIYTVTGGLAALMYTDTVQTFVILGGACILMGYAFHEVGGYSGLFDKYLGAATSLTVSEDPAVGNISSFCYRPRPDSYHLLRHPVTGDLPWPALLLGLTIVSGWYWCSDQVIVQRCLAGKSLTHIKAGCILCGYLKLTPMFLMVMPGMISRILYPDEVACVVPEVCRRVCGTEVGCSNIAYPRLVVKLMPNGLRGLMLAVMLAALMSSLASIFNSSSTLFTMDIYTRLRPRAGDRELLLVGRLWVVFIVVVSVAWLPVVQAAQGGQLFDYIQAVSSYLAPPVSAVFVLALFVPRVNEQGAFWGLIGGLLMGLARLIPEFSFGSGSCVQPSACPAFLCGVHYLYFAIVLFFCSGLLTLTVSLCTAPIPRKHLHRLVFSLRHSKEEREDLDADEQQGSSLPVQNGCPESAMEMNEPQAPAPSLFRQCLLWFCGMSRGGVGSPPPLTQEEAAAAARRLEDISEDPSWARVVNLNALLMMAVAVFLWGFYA

Usually IC50 stands for the concentration needed to halve the response being measured. As to `CS[C@H]1O[C@@H](c2ccc(C)c(Cc3ccc(OCCCNC(C)(C)CO)cc3)c2)[C@H](O)[C@@H](O)[C@@H]1O` [(2S,3R,4R,5S,6R)-2-(3-(4-(3-((1-hydroxy-2-methylpropan-2-yl)amino)propoxy)benzyl)-4-methylphenyl)-6-(methylthio)tetrahydro-2H-pyran-3,4,5-triol], in the test with KKay mice [1], the “postprandial tGLP-1” value is “significant increase in postprandial tGLP-1”. Moreover, the IC50 in test [2] and in test [3] was less than 10 nM throughout. Also, the HbA1c result in the test on KKay mice [4] is reported as “significant, dose-dependent reduction in HbA1c”. In the test on KKay mice [5], the “glucose excursion after glucose challenge” value is given as “dose-dependent decrease in glucose excursion”.

Regarding `CS[C@H]1O[C@@H](c2ccc(Cl)c(Cc3ccc(OCCNC(=O)OC(C)(C)C)cc3)c2)[C@H](O)[C@@H](O)[C@@H]1O` [tert-butyl (2-(4-(2-chloro-5-((2S,3R,4R,5S,6R)-3,4,5-trihydroxy-6-(methylthio)tetrahydro-2H-pyran-2-yl)benzyl)phenoxy)ethyl)carbamate], the IC50 was less than 100 nM in test [2] and less than 10 nM in test [3].
